Laboratory results taken from article PMC9286291, “A new adenine nucleotide transporter located in the ER is essential for maintaining the growth of Toxoplasma gondii” (PLoS Pathogens, 2022).

Experiments:
[1] = molecular target: T1, PfANT (Plasmodium falciparum, UniProt Q8IIM9); test: inhibition of [α-32P]ATP uptake into intact E. coli cells; type: cell-based; conditions: 25 nM [α-32P]ATP, unlabelled competitor at 100-fold concentration, 15 min, 30 °C, 50 mM potassium phosphate pH 7.0
T1 construct: gene PF3D7_1113300; expressed in the plasma membrane of intact IPTG-induced E. coli from an encoding plasmid
T1 sequence (Q8IIM9 1-343): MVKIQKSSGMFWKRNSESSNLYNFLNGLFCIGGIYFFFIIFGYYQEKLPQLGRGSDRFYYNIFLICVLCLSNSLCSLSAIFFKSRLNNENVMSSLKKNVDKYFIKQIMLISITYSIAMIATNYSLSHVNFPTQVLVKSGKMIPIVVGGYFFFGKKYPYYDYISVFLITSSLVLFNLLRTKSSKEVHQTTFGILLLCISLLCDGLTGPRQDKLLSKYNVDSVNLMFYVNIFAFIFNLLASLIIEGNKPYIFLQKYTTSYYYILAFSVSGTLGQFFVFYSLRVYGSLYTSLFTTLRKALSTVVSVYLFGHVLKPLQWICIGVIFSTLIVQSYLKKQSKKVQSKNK
Description: inhibition of [α-32P]ATP uptake into intact E. coli cells on PfANT

[2] = molecular target: T2, TgANT (Toxoplasma gondii, UniProt A0A7J6KCX5); test: as above; type: cell-based; conditions: 25 nM [α-32P]ATP, unlabelled competitor at 100-fold concentration, 15 min, 30 °C, 50 mM potassium phosphate pH 7.0
T2 construct: gene TGRH88_003770; codon-optimised CDS in pET16b, expressed in the plasma membrane of intact E. coli BL21 (DE3); HA tag in the IFA construct
T2 sequence (A0A7J6KCX5 1-413): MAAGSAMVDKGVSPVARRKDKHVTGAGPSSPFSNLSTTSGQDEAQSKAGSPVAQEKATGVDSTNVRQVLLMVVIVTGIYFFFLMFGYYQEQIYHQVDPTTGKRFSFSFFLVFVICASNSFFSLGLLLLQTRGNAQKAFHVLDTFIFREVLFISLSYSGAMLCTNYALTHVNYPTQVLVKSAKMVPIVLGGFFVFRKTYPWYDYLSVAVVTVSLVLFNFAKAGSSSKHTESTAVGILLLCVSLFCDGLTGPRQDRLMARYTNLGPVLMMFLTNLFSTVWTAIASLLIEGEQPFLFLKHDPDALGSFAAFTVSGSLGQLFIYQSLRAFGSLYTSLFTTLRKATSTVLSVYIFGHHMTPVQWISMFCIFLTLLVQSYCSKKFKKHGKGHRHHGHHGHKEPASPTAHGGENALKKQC
Description: inhibition of [α-32P]ATP uptake into intact E. coli cells on TgANT

Row | Structure (SMILES) | Uptake(% of control) [1] | Uptake(% of control) [2]
1 | Nc1ncnc2c1ncn2[C@@H]1O[C@H](COP(=O)(O)OP(=O)(O)O)[C@@H](O)[C@H]1O [ADP] | 28.9 ±3.8 % of control | 3.9 ±0.31 % of control
2 | Nc1ncnc2c1ncn2[C@@H]1O[C@H](COP(=O)(O)OP(=O)(O)OP(=O)(O)O)[C@@H](O)[C@H]1O [ATP] | 23.8 ±1.4 % of control | 3.4 ±0.25 % of control
